Experimental data reported in patent US7410955B2, “Therapeutic use of agonist ligands specific to G2A receptor” (Biosynergen, Inc., priority 2002, dated 2008).

Key:
[1] = system: monocytes (human PBMC); experiment: IL-8 release induced by LPS in monocytes (ELISA); format: cell-based; conditions: 15 μM and 30 μM, 1 hour before 1 μg/ml LPS, supernatant after 3 hours
Description: Peripheral bloods were collected from a healthy person, put into a heparinized tube and then well mixed with 1× PBS buffer. Then, they were layered in Ficoll-Hypaque solution (density 1.077, Sigma Chemical Co., USA) and then centrifuged at 2500 rpm at 4° C. for 25 min. After the monocyte layer between Ficoll layer and plasma layer had been cautiously recovered, 1×PBS buffer was added thereto and mixed well. It was then centrifuged again at 2500 rpm at 4° C. for 25 min. Such centrifugation procedures were repeated twice until red blood cells were depleted. Thereafter, the pellet was cultured in FBS at 37° C. for 15 min and centrifuged at 2500 rpm for 10 min. Then, 1×PBS buffer was added again to the pellet. The isolated cells were layered in percoll solution (density 1.066) and then centrifuged at 2500 rpm at 4° C. for 30 min. After only monocyte layer had been recovered from the isolated layers, 1×PBS buffer was added thereto. They were centrifuged at 2500 rpm for 15 min. […]
The neutrophils and monocytes isolated in Examples <2-1> and <2-2> above were cultured in a 96-well plate to which RPMI1640 medium containing 10% FBS was added, at a concentration of 1×10^5 cells/well/0.2 ml, respectively. […] Then, the level of IL-8 was measured using ELISA kit (Biosource, USA).

[2] = system: CLP-induced Sepsis model; experiment: CLP-induced sepsis model; format: in vivo, ICR mice
Description: After ICR mice (25-30 g in body weight; MJ Ltd.) had been anesthetized with pentobarbital, right abdominal sites of the mice were dissected in a length of 1 cm to expose their cecum, and sites below the ileocecal valve were ligated. And then, after 4˜6 punctures had been created on the cecum with 21-gauge needle, the abdomen was sutured again to cause peritonitis, thereby inducing Sepsis.
After the peritoneal cavity of mice had been exposed, it was washed with sterilized saline (2 ml). The resultant solution was diluted with HBSS (Sigma Chemical Co., USA) in a ratio of 1/1000, and then 10 μl of each diluted solution was spread on Trypticase Soy agar (BBL, Becton Dickinson Co., USA) plates. After overnight incubation at 37° C., colony forming unit (CFU) was measured.
7 mice were administered with 1-stearoyl LPC (Sigma Chemical Co., USA) dissolved in 1% BSA solution containing no fatty acid in an amount of 10 mg/kg by subcutaneous injection 2 and 14 hours after the CLP surgery, respectively (experimental group). The remaining 7 mice were administered with 1% BSA solution containing no fatty acid of the same amount as above in the same manner (control group). The numbers of intraperitoneal E. coli cells in the ICR mice of experimental and control groups were measured in accordance with Reference Example 3, 24 hours after the CLP surgery.
Each 10 ICR mice were intraperitoneally administered with 1-stearoyl LPC (Sigma Chemical Co., USA) dissolved in 1% BSA solution containing no fatty acid in amounts of 5, 10, and 20 mg/kg, respectively, four times at intervals of 12 hours, 2 hours after the CLP surgery (experimental group-1, -2 and -3). The remaining 10 ICR mice were administered only with 1% BSA solution containing no fatty acid (control group). And then, the survival rates of mice in experimental- and control groups were investigated over the lapse of time.
10 mice for the experimental group were intraperitoneally administered with 1-stearoyl LPC (Sigma Chemical Co., USA) dissolved in 1% BSA solution containing no fatty acid in an amount of 10 mg/kg, four times at intervals of 12 hours, 10 hours after the CLP surgery. The remaining 10 mice for the control group were administered only with 1% BSA solution containing no fatty acid. Thereafter, the survival rates of ICR mice in experimental- and control groups were investigated over the lapse of time.
CLP-induced Sepsis model mice were subcutaneously injected with SPC, instead of 1-stearoyl LPC, in dosages of 3 mg/kg and 30 mg/kg four times at intervals of 12 hours, 2 hours after the CLP surgery, respectively. The survival rates of mice were investigated.

[3] = system: E. coli; experiment: In vitro antibacterial activity of LPC (CFU on LB media); format: cell-based; conditions: for CFU: 37° C., 12 hours
Description: Four petridishes per group were used. For a control group, only LB media was poured onto four 60-mm petridishes and hardened. The peritoneal cavity of mice according to Example <6-1> was washed with sterilized saline. The resultant solution was diluted with HBSS in a ratio of 1/100, and then 10 μl of the diluted solution was spread on the media for each group. Subsequently, after they had been incubated in a bacteria incubator maintained at 37° C. for 12 hours, colony forming unit (CFU) was visibly measured.

Question: How did the “level of IL-8 release that had been increased by LPS in monocytes” value [1] turn out when `CCCCCCCCCCCCCCCCCC(=O)OCC(O)COP(=O)([O-])OCC[N+](C)(C)C` (centres unmarked) [1-stearoyl LPC, 1-stearoyl (18:0) lysophosphatidylcholine] was run?
Answer: inhibited by LPC in a concentration-dependent manner

Question: And the “therapeutic effect (survival rate) when septicemia already developed” value ([2]; 10 mg/kg intraperitoneal, four times at intervals of 12 hours, starting 10 hours after CLP surgery)?
Answer: excellent therapeutic effect

Question: What about the “number of intraperitoneal E. coli cells” value ([2]; 10 mg/kg subcutaneous, 2 and 14 hours after CLP surgery, 24 hours after surgery, P<0.01) of the same molecule?
Answer: remarkably decreased

Question: What about the survival rate ([2]; 5, 10 and 20 mg/kg intraperitoneal, four times at intervals of 12 hours, starting 2 hours after CLP surgery) of the same molecule?
Answer: much higher than that of the mice in control group

Question: What about the CFU ([3]; LPC conc. 12 μM in LB media) of the same molecule?
Answer: 661 ± 285

Question: And the CFU ([3]; LPC conc. 60 μM in LB media)?
Answer: 639 ± 304

Question: And the CFU ([3]; LPC conc. 300 μM in LB media)?
Answer: 611 ± 281

Question: What about the “in vitro direct antibacterial effects against E. coli” value ([3]; summary of Table 1) of the same molecule?
Answer: no in vitro direct antibacterial effects
